Test results published in the NIST ThermoML archive (doi:10.1021/je7006549).

Assay: mn = molality of the nth substance listed, in mol/kg
Settings: 101 kPa, Liquid

CC1=CC(=O)c2ccccc2C1=O [2-methyl-1,4-naphthalenedione] + Cc1ccc(C)cc1
Settings | mass density [kg/m3] | viscosity [mPa·s]
303.15 K, m1 = 0.0454 | 854 | 0.5859
303.15 K, m1 = 0.0902 | 856 | 0.5904
303.15 K, m1 = 0.1361 | 858.1 | 0.5958
303.15 K, m1 = 0.1815 | 860.1 | 0.6048
303.15 K, m1 = 0.2267 | 862.1 | 0.6092
303.15 K, m1 = 0.2724 | 864.1 | 0.6161
308.15 K, m1 = 0.0454 | 849.7 | 0.5528
308.15 K, m1 = 0.0902 | 851.7 | 0.5581
308.15 K, m1 = 0.1361 | 853.8 | 0.5631
308.15 K, m1 = 0.1815 | 855.8 | 0.5716
308.15 K, m1 = 0.2267 | 857.8 | 0.5748
308.15 K, m1 = 0.2724 | 859.8 | 0.582
313.15 K, m1 = 0.0454 | 845.2 | 0.5222
313.15 K, m1 = 0.0902 | 847.2 | 0.5274
313.15 K, m1 = 0.1361 | 849.3 | 0.5349
313.15 K, m1 = 0.1815 | 851.3 | 0.5396
313.15 K, m1 = 0.2267 | 853.3 | 0.543
313.15 K, m1 = 0.2724 | 855.3 | 0.5477
318.15 K, m1 = 0.0454 | 840.7 | 0.4999
318.15 K, m1 = 0.0902 | 842.7 | 0.5047
318.15 K, m1 = 0.1361 | 844.8 | 0.5097
318.15 K, m1 = 0.1815 | 846.8 | 0.5152
318.15 K, m1 = 0.2267 | 848.8 | 0.5183
318.15 K, m1 = 0.2724 | 850.8 | 0.5242
323.15 K, m1 = 0.0454 | 836.5 | 0.4686
323.15 K, m1 = 0.0902 | 838.5 | 0.4737
323.15 K, m1 = 0.1361 | 840.6 | 0.477
323.15 K, m1 = 0.1815 | 842.6 | 0.4824
323.15 K, m1 = 0.2267 | 844.6 | 0.4864
323.15 K, m1 = 0.2724 | 846.6 | 0.4907
328.15 K, m1 = 0.0454 | 831.9 | 0.4467
328.15 K, m1 = 0.0902 | 833.9 | 0.4509
328.15 K, m1 = 0.1361 | 836 | 0.456
328.15 K, m1 = 0.1815 | 838 | 0.4615
328.15 K, m1 = 0.2267 | 840 | 0.4633
328.15 K, m1 = 0.2724 | 842 | 0.4698
333.15 K, m1 = 0.0454 | 827.6 | 0.4225
333.15 K, m1 = 0.0902 | 829.6 | 0.4258
333.15 K, m1 = 0.1361 | 831.7 | 0.4309
333.15 K, m1 = 0.1815 | 833.7 | 0.4364
333.15 K, m1 = 0.2267 | 835.7 | 0.4384
333.15 K, m1 = 0.2724 | 837.7 | 0.4429

CC1=CC(=O)c2ccccc2C1=O [2-methyl-1,4-naphthalenedione] + Cc1cccc(C)c1
Settings | mass density [kg/m3] | viscosity [mPa·s]
303.15 K, m1 = 0.0452 | 857.6 | 0.5673
303.15 K, m1 = 0.0902 | 859.6 | 0.5771
303.15 K, m1 = 0.1352 | 861.6 | 0.5802
303.15 K, m1 = 0.1802 | 863.6 | 0.5844
303.15 K, m1 = 0.2254 | 865.6 | 0.5902
303.15 K, m1 = 0.272 | 867.7 | 0.6031
308.15 K, m1 = 0.0452 | 853.1 | 0.5351
308.15 K, m1 = 0.0902 | 855.1 | 0.5422
308.15 K, m1 = 0.1352 | 857.1 | 0.5467
308.15 K, m1 = 0.1802 | 859.1 | 0.5523
308.15 K, m1 = 0.2254 | 861.1 | 0.5566
308.15 K, m1 = 0.272 | 863.2 | 0.5654
313.15 K, m1 = 0.0452 | 848.9 | 0.5098
313.15 K, m1 = 0.0902 | 850.9 | 0.5144
313.15 K, m1 = 0.1352 | 852.9 | 0.5188
313.15 K, m1 = 0.1802 | 854.9 | 0.5237
313.15 K, m1 = 0.2254 | 856.9 | 0.5284
313.15 K, m1 = 0.272 | 859 | 0.5352
318.15 K, m1 = 0.0452 | 844.4 | 0.4864
318.15 K, m1 = 0.0902 | 846.4 | 0.4931
318.15 K, m1 = 0.1352 | 848.4 | 0.4977
318.15 K, m1 = 0.1802 | 850.4 | 0.5013
318.15 K, m1 = 0.2254 | 852.4 | 0.505
318.15 K, m1 = 0.272 | 854.5 | 0.5117
323.15 K, m1 = 0.0452 | 840.3 | 0.4593
323.15 K, m1 = 0.0902 | 842.3 | 0.4642
323.15 K, m1 = 0.1352 | 844.3 | 0.4669
323.15 K, m1 = 0.1802 | 846.3 | 0.4711
323.15 K, m1 = 0.2254 | 848.3 | 0.4753
323.15 K, m1 = 0.272 | 850.4 | 0.4817
328.15 K, m1 = 0.0452 | 835.7 | 0.4381
328.15 K, m1 = 0.0902 | 837.7 | 0.4432
328.15 K, m1 = 0.1352 | 839.7 | 0.4456
328.15 K, m1 = 0.1802 | 841.7 | 0.4497
328.15 K, m1 = 0.2254 | 843.7 | 0.4539
328.15 K, m1 = 0.272 | 845.8 | 0.463
333.15 K, m1 = 0.0452 | 831.6 | 0.4148
333.15 K, m1 = 0.0902 | 833.6 | 0.4198
333.15 K, m1 = 0.1352 | 835.6 | 0.4242
333.15 K, m1 = 0.1802 | 837.6 | 0.4269
333.15 K, m1 = 0.2254 | 839.6 | 0.429
333.15 K, m1 = 0.272 | 841.7 | 0.4342
